pKi: −log10 of the molar value. Read-outs that look alike come from different tables or passages of the source.
What was measured:
human NK1 receptor = human NK1 receptor (Homo sapiens, UniProt P25103); test: NK1 receptor binding, [3H]substance P displacement, CHO cell membranes; details: for pKi: first value of the cell pKi NK1/NK3, human NK1 receptor, [3H]substance P; for Ki: first value of the cell NK1/NK3, read-out: pKi NK1 (converted)
[1] = target: T1, Recombinant human NK3 (hNK3) receptor (Homo sapiens, UniProt P29371); test: NK3 receptor binding, [3H]SR142801 displacement, membrane preparations; details: for pKi: second value of the cell pKi NK1/NK3, hNK3 receptor, [3H]SR142801; for Ki: second value of the cell NK1/NK3, read-out: pKi NK3 (converted)
T1 construct: expressed in transfected cells
T1 sequence (P29371 1-465): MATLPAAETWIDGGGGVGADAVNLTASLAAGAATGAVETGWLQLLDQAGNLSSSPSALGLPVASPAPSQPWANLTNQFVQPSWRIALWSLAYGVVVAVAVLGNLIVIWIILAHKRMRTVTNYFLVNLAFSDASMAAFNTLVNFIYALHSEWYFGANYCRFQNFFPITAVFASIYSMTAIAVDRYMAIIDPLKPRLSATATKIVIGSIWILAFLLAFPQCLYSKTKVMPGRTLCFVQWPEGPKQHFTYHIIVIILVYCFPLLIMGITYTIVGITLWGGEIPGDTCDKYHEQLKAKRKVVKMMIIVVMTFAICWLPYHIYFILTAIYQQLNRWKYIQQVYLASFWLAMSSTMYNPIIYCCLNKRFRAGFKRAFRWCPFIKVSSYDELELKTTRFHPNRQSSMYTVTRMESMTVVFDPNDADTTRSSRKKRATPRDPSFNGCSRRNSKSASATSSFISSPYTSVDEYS
Outline: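 Room-temperature, 90-min filtration binding assay using about 2.5 μg recombinant receptor membranes per well; separation on polyethyleneimine-treated glass-fibre (GF/C) filters and liquid scintillation read-out, with 10 μM SB222200 for nonspecific binding.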

Chain of human NK1 receptor (P25103 whole entry): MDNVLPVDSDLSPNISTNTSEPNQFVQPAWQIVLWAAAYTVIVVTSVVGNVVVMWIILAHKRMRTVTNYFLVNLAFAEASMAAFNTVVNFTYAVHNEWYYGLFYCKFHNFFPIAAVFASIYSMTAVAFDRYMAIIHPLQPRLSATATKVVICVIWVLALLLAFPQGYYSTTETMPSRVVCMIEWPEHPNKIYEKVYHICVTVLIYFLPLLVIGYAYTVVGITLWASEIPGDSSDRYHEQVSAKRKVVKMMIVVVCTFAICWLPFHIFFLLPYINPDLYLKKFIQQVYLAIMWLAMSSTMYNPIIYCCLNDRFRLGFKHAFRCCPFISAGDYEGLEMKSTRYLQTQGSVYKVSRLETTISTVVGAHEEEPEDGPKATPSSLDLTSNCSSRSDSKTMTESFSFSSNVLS

SMILES: Cc1cc(F)ccc1-c1cc(N2[C@H](CO)CC[C@@H]2CO)ncc1N(C)C(=O)C(C)(C)c1cc(C(F)(F)F)cc(C(F)(F)F)c1 [Example 197, (2R,5S)-N-[6-(2,5-Bis-hydroxymethyl-pyrrolidin-1-yl)-4-(4-fluoro-2-methyl-phenyl)-pyridin-3-yl]-2-(3,5-bis-trifluoromethyl-phenyl)-N-methyl-isobutyramide]
- pKi (human NK1 receptor): 8.54
- pKi [1]: 8.41

SMILES: CN(C(=O)C(C)(C)c1cc(C(F)(F)F)cc(C(F)(F)F)c1)c1cnc(N2CC[C@H](O)[C@H]2CO)cc1-c1ccc(F)cc1CO [Example 274, (2R,3S)-2-(3,5-Bis-trifluoromethyl-phenyl)-N-[4-(4-fluoro-2-hydroxymethyl-phenyl)-6-(3-hydroxy-2-hydroxymethyl-pyrrolidin-1-yl)-pyridin-3-yl]-N-methyl-isobutyramide]
- Ki (human NK1 receptor): 1.29 nM
- Ki [1]: 1.51 nM

SMILES: CC(=O)NC1CCN(c2cc(-c3ccc(F)cc3C)c(N(C)C(=O)C(C)(C)c3cc(C(F)(F)F)cc(C(F)(F)F)c3)cn2)CC1 [Example 114, N-[4-Acetylamino-4′-(4-fluoro-2-methyl-phenyl)-3,4,5,6-tetrahydro-2H-[1,2′]bipyridinyl-5′-yl]-2-(3,5-bis-trifluoromethyl-phenyl)-N-methyl-isobutyramide]
- pKi (human NK1 receptor): 9.22
- pKi [1]: 7.79

SMILES: CSc1ccccc1-c1cc(N2C[C@H](O)C[C@H]2CO)ncc1N(C)C(=O)C(C)(C)c1cc(C(F)(F)F)cc(C(F)(F)F)c1 [Example 217, (2S,4R)-2-(3,5-Bis-trifluoromethyl-phenyl)-N-[6-(4-hydroxy-2-hydroxymethyl-pyrrolidin-1-yl)-4-(2-methylsulfanyl-phenyl)-pyridin-3-yl]-N-methyl-isobutyramide]
- Ki (human NK1 receptor): 1.05 nM
- Ki [1]: 2.4 nM

SMILES: COc1ccc(-c2cc(N3C[C@H](O)C[C@H]3CO)ncc2N(C)C(=O)C(C)(C)c2cc(C(F)(F)F)cc(C(F)(F)F)c2)c(OC)n1 [Example 231, (2S,4R)-2-(3,5-Bis-trifluoromethyl-phenyl)-N-[6′-(4-hydroxy-2-hydroxymethyl-pyrrolidin-1-yl)-2,6-dimethoxy-[3,4′]bipyridinyl-3′-yl]-N-methyl-isobutyramide]
- Ki (human NK1 receptor): 2.45 nM
- Ki [1]: 14.1 nM

SMILES: Cc1c(F)cccc1-c1cc(N2CCC[C@H]2CO)ncc1N(C)C(=O)C(C)(C)c1cc(C(F)(F)F)cc(C(F)(F)F)c1 [Example 167, (S)-2-(3,5-Bis-trifluoromethyl-phenyl)-N-[4-(3-fluoro-2-methyl-phenyl)-6-(2-hydroxymethyl-pyrrolidin-1-yl)-pyridin-3-yl]-N-methyl-isobutyramide]
- pKi (human NK1 receptor): 8.35
- pKi [1]: 9.01

SMILES: Cc1ncccc1-c1cc(N2C[C@H](O)C[C@H]2CO)ncc1N(C)C(=O)C(C)(C)c1cc(C(F)(F)F)cc(C(F)(F)F)c1 [Example 233, (2S,4R)-2-(3,5-Bis-trifluoromethyl-phenyl)-N-[6′-(4-hydroxy-2-hydroxymethyl-pyrrolidin-1-yl)-2-methyl-[3,4′]bipyridinyl-3′-yl]-N-methyl-isobutyramide]
- Ki (human NK1 receptor): 0.427 nM
- Ki [1]: 3.89 nM

SMILES: Cc1cc(F)ccc1-c1cc(N2CC[C@H](O)C2)ncc1N(C)C(=O)C(C)(C)c1cc(C(F)(F)F)cc(C(F)(F)F)c1 [Example 109, (S)-2-(3,5-Bis-trifluoromethyl-phenyl)-N-[4-(4-fluoro-2-methyl-phenyl)-6-(3-hydroxy-pyrrolidin-1-yl)-pyridin-3-yl]-N-methyl-isobutyramide]
- pKi (human NK1 receptor): 8.69
- pKi [1]: 7.87

SMILES: CN(C(=O)C(C)(C)c1cc(C(F)(F)F)cc(C(F)(F)F)c1)c1cnc(N[C@H]2CC[C@H](O)CC2)cc1-c1ccccc1Br [Example 132, trans-2-(3,5-Bis-trifluoromethyl-phenyl)-N-[4-(2-bromo-phenyl)-6-(4-hydroxy-cyclohexylamino)-pyridin-3-yl]-N-methyl-isobutyramide]
- pKi (human NK1 receptor): 8.88
- pKi [1]: 8.14

SMILES: CN(C(=O)C(C)(C)c1cc(C(F)(F)F)cc(C(F)(F)F)c1)c1cnc(N2C[C@H](O)C[C@H](O)C2)cc1-c1ccccc1Cl [Example 181]
- pKi (human NK1 receptor): 8.70
- pKi [1]: 8.47

SMILES: CN(C(=O)C(C)(C)c1cc(C(F)(F)F)cc(C(F)(F)F)c1)c1cnc(NC(CO)CO)cc1-c1ccccc1Cl [Example 81, 2-(3,5-Bis-trifluoromethyl-phenyl)-N-[4-(2-chloro-phenyl)-6-(2-hydroxy-1-hydroxymethyl-ethylamino)-pyridin-3-yl]-N-methyl-isobutyramide]
- pKi (human NK1 receptor): 8.68
- pKi [1]: 8.25

SMILES: CCCCN(CCO)c1cc(-c2ccccc2Cl)c(N(C)C(=O)C(C)(C)c2cc(C(F)(F)F)cc(C(F)(F)F)c2)cn1 [Example 57, 2-(3,5-Bis-trifluoromethyl-phenyl)-N-[6-[butyl-(2-hydroxy-ethyl)-amino]-4-(2-chloro-phenyl)-pyridin-3-yl]-N-methyl-isobutyramide]
- pKi (human NK1 receptor): 8.00
- pKi [1]: 7.56

SMILES: CN(C(=O)C(C)(C)c1cc(C(F)(F)F)cc(C(F)(F)F)c1)c1cnc(NCCO)cc1-c1ccc(F)cc1Cl [Example 69, 2-(3,5-Bis-trifluoromethyl-phenyl)-N-[4-(2-chloro-4-fluoro-phenyl)-6-(2-hydroxy-ethylamino)-pyridin-3-yl]-N-methyl-isobutyramide]
- pKi (human NK1 receptor): 8.95
- pKi [1]: 7.84

SMILES: CCC(O)CNc1cc(-c2ccccc2Cl)c(N(C)C(=O)C(C)(C)c2cc(C(F)(F)F)cc(C(F)(F)F)c2)cn1 (stereo not shown) [Example 76, 2-(3,5-Bis-trifluoromethyl-phenyl)-N-[4-(2-chloro-phenyl)-6-(2-hydroxy-butylamino)-pyridin-3-yl]-N-methyl-isobutyramide]
- pKi (human NK1 receptor): 8.80
- pKi [1]: 7.97

SMILES: CN(C(=O)C(C)(C)c1cc(C(F)(F)F)cc(C(F)(F)F)c1)c1cnc(NC[C@@H](O)CO)cc1-c1ccccc1Cl [Example 126, (R)-2-(3,5-Bis-trifluoromethyl-phenyl)-N-[4-(2-chloro-phenyl)-6-(2,3-dihydroxy-propylamino)-pyridin-3-yl]-N-methyl-isobutyramide]
- pKi (human NK1 receptor): 8.60
- pKi [1]: 8.11

SMILES: CN(C(=O)C(C)(C)c1cc(C(F)(F)F)cc(C(F)(F)F)c1)c1cnc(N[C@H]2CC[C@H](O)CC2)cc1-c1ccc(Cl)cc1Cl [Example 91, trans-2-(3,5-Bis-trifluoromethyl-phenyl)-N-[4-(2,4-dichloro-phenyl)-6-(4-hydroxy-cyclohexylamino)-pyridin-3-yl]-N-methyl-isobutyramide]
- pKi (human NK1 receptor): 8.61
- pKi [1]: 8.25

SMILES: CCN([C@H]1CCN(c2cc(-c3ccc(F)cc3C)c(N(C)C(=O)C(C)(C)c3cc(C(F)(F)F)cc(C(F)(F)F)c3)cn2)C1)S(C)(=O)=O [Example 106]
- pKi (human NK1 receptor): 9.23
- pKi [1]: 8.33

SMILES: CN(C(=O)C(C)(C)c1cc(C(F)(F)F)cc(C(F)(F)F)c1)c1cnc(N2CCC[C@@H]2CO)cc1-c1ccc(Cl)cc1Cl [Example 94, (R)-2-(3,5-Bis-trifluoromethyl-phenyl)-N-[4-(2,4-dichloro-phenyl)-6-(2-hydroxymethyl-pyrrolidin-1-yl)-pyridin-3-yl]-N-methyl-isobutyramide]
- pKi (human NK1 receptor): 8.37
- pKi [1]: 7.83

SMILES: CN(C(=O)C(C)(C)c1cc(C(F)(F)F)cc(C(F)(F)F)c1)c1cnc(N(CCO)CCO)cc1-c1ccccc1Br [Example 134, N-[6-[Bis-(2-hydroxy-ethyl)-amino]-4-(2-bromo-phenyl)-pyridin-3-yl]-2-(3,5-bis-trifluoromethyl-phenyl)-N-methyl-isobutyramide]
- pKi (human NK1 receptor): 8.65
- pKi [1]: 8.66

SMILES: CN(C(=O)C(C)(C)c1cc(C(F)(F)F)cc(C(F)(F)F)c1)c1cnc(N2CCCC[C@@H]2CO)cc1-c1ccccc1Cl [Example 160, (R)-2-(3,5-Bis-trifluoromethyl-phenyl)-N-[4′-(2-chloro-phenyl)-2-hydroxymethyl-3,4,5,6-tetrahydro-2H-[1,2′]bipyridinyl-5′-yl]-N-methyl-isobutyramide]
- pKi (human NK1 receptor): 8.69
- pKi [1]: 7.52

SMILES: COc1ccccc1-c1cc(N2C[C@@H](O)C[C@H]2CO)ncc1N(C)C(=O)C(C)(C)c1cc(C(F)(F)F)cc(C(F)(F)F)c1 [Example 244, (2S,4S)-2-(3,5-Bis-trifluoromethyl-phenyl)-N-[6-(4-hydroxy-2-hydroxymethyl-pyrrolidin-1-yl)-4-(2-methoxy-phenyl)-pyridin-3-yl]-N-methyl-isobutyramide]
- Ki (human NK1 receptor): 1 nM
- Ki [1]: 7.08 nM

SMILES: Cc1ccccc1-c1cc(N2C[C@H](F)C[C@H]2CO)ncc1N(C)C(=O)C(C)(C)c1cc(C(F)(F)F)cc(C(F)(F)F)c1 [Example 301, (2S,4R)-2-(3,5-Bis-trifluoromethyl-phenyl)-N-[6-(4-fluoro-2-hydroxymethyl-pyrrolidin-1-yl)-4-o-tolyl-pyridin-3-yl]-N-methyl-isobutyramide]
- Ki (human NK1 receptor): 2.14 nM
- Ki [1]: 2.29 nM

SMILES: CN(CCO)c1cc(-c2ccccc2Cl)c(N(C)C(=O)C(C)(C)c2cc(C(F)(F)F)cc(C(F)(F)F)c2)cn1 [Example 54, 2-(3,5-Bis-trifluoromethyl-phenyl)-N-{4-(2-chloro-phenyl)-6-[(2-hydroxy-ethyl)-methyl-amino]-pyridin-3-yl}-N-methyl-isobutyramide]
- pKi (human NK1 receptor): 9.00
- pKi [1]: 8.57

From patent US8404708B2, “Dual NK1/NK3 receptor antagonists” (Hoffmann-La Roche Inc., priority 2004, dated 2013)
